Earlier results as cited in patent US20210393932A1, “DERMAL PATCHES AND GLASS SWABS FOR APPLICATION OF TOPICAL IMMUNOSENSITIZERS” (Squarex, LLC, priority 2020, published 2021).

Tested on: common warts and alopecia areata
Conditions: solutions of 0.05% to 2.0% weight/volume, vehicle almost always acetone, applied repeatedly (Buckley et al., Lee et al.); cited from earlier work

| SMILES | treatment of common warts and alopecia areata |
| --- | --- |
| O=[N+]([O-])c1ccc(Cl)c([N+](=O)[O-])c1 [DNCB, 1-chloro-2,4-dinitrobenzene] | used successfully |
| O=c1c(-c2ccccc2)c1-c1ccccc1 [diphenylcyclopropenone] | used successfully |
